Measurements reported in article doi:10.1101/2024.10.11.617883, “A Streamlined High-Throughput LC-MS Assay for Quantifying Peptide Degradation in Cell Culture” (bioRxiv, 2024).
Like-named read-outs stand apart in the source and are kept apart here.

Assays:
[1] = Retention on the reverse-phase LC-MS column; assay type: physicochemical
Protocol: The column temperature was a constant 29 °C. The mass spectrometer was operated in positive ion mode.
Since salts from cell culture media adversely impact ionization and foul the MS, we send the mobile phase from the first 1.5 minutes of LCMS to waste prior to ionization to prevent salt accumulation in the mass spectrometer. Accordingly, peptides and internal standards which elute before the gradient begins are not suitable for quantification since they will not be analyze by the mass spectrometer. N-terminal acetylation, the addition of a phenylalanine, or β-homophenylalanine improves retention time by increasing they hydrophobicity of the polypeptide, which increases the affinity to the column (Figure 2A). After 48 hours of degradation, three internal standards candidates had both good retention times and less than 10% degradation (Figure 2B): 1) Ac-βA6-Amide, 2) NH2-βFβA6-Amide, and 3) Ac-FβA6-Amide. The ability of molecules to be identified in mass spectrometry is dependent on their propensity to become ionized, and the Ac-βA6-Amide standard was excluded due to weak signal intensity of the LC-MS (not shown), likely due to the lack of charged groups. […]

[2] = human, cells or culture medium
Protocol: (§1) Human mesenchymal stem cells (hMSCs) (Rooster Bio, LOT 310368) at passage 3 were seeded into 24 well plates at a seeding density of 75,000 cells per well in 1mL of RoosterBasal-MSC-CC (RoosterBio, SU-022) containing RoosterBooster-MSC (RoosterBio SU-003). After 24 hour the media was changed, and peptide library AcβA-RGEFV-X-NH2 was added to the cell media for a final concentration of 37 μM per peptide. Each Library was tested in three times, each in triplicate with three technical repeats for a total of 27 wells. 40 μl samples were collected from the media at hours 0, 1, 4, 8, 24, and 48 in duplicate.
(§2) In-between timepoints, one set of samples was loaded directly within the LC-MS and measured as soon as possible, then stored at 4°C. The second set of samples was immediately frozen at −80°C. After 48 hours, samples were kept frozen and thawed just prior to LC-MS, and 4μL of acetic acid was added to each well. After three weeks the samples were tested again.
(§3) From each sample, 10 μL of crude solution was introduced by the LC-MS through an Thermo Scientific Vanquish LC System (Thermo Fisher Scientific) which outputted to a Thermo Scientific LTQ XL Linear Ion Trap Mass Spectrometer (Thermo Fisher Scientific). The sampled mixture was trapped on a column (ProntoSIL C18 AQ, 120 Å, 3 μm, 2.0 × 50 mm HPLC Column, PN 0502F184PS030, MAC-MOD Analytical Inc.). The samples were loaded onto the column with a solvent containing acetonitrile/water, 5:95 (v/v) containing 1% acetic acid at a flow rate of 300 μL/min and held for one minute. The sample was then eluted from the column with a linear gradient of 5–40% Solvent B (1% acetic acid in acetonitrile) at the same flow rate for five minutes. This was followed by a 1 min ramp up to 100% solvent B, where it was re-equilibrated with solvent A (1% acetic acid) to 5% solvent B over the course of 1 min and held there for 2 min. The column temperature was a constant 29 °C. The mass spectrometer was operated in positive ion mode. Using a heated ESI, the source voltage was set to 4.1 kV, and the capillary temperature was 350 °C.
(§4) Data analysis was performed on Xcalibur Software (Thermo Scientific). Peptides were identified automatically using the Thermo Xcalibur Processing Setup window where the mass (m/z) ±0.5 AMU and expected retention times for each quantified peptide were inputted. This was later used to isolate individual peptide species from the total ion count (TIC) trace using the Thermo Xcalibur Quan Setup window, where the area under the curve was calculated and visually inspected for accuracy. […] The integrated peak area of the peptide of interest was divided by the NH2-βF(βA)6-Amide internal standard to create an area ratio. Relative amounts of a peptide of peptide were then calculated by normalized all values to their corresponding time zero area ratio. Calculated data was visualized using RStudio.

[3] = system: human mesenchymal stem cells (hMSCs)
Protocol: as §1, §2, §3, §4

in vitro = conditions: human, cells or culture medium
Protocol: as §1, §2, §3, §4

## NC(=O)CCNC(=O)CCNC(=O)CCNC(=O)CCNC(=O)CCNC(=O)CCNC(=O)C[C@@H](N)Cc1ccccc1 [NH2-βFβA6-Amide]
[1]; ProntoSIL C18 AQ 2.0 x 50 mm, 5% B held 1 min then 5-40% acetonitrile (1% acetic acid) over 5 min, 300 μL/min, 29 °C, retention tied to hydrophobicity and column affinity
  peptide elution time: 2.68 min
[2]
  metabolised at 48 h: < 10%
  remaining at 48 h: > 92%
[3]
  time stable in cell culture: 48 h

## CC(=O)N[C@@H](Cc1ccccc1)C(=O)NCCC(=O)NCCC(=O)NCCC(=O)NCCC(=O)NCCC(=O)NCCC(N)=O [Ac-FβA6-Amide]
In vitro
  metabolised at 48 h: < 10%

## NCCC(=O)NCCC(=O)NCCC(=O)NCCC(=O)NCCC(=O)NCCC(N)=O [NH2-(βA)6-Amide]
[1]; ProntoSIL C18 AQ, gradient begins after 1 min at 5% B, first 1.5 minutes sent to waste
  affinity to the LC-MS column (retention): eluting before the chromatography gradient begins

## CC(=O)NCCC(=O)NCCC(=O)NCCC(=O)NCCC(=O)NCCC(=O)NCCC(N)=O [Ac-βA6-Amide]
In vitro
  metabolised at 48 h: < 10%
